For 5 compounds, % binding, % of control and % of inhibition results are on record in ChEMBL document CHEMBL5465560, “Selectivity Literature for EUbOPEN Chemogenomic Library” (2024).

The subject of test [1] is Phosphatidylinositol 4,5-bisphosphate 3-kinase catalytic subunit alpha isoform (Homo sapiens), P42336 [H1047Y]. Nature of the test: (§1) Selectivity interaction (KinomeScan (DiscoverX)) EUB0000229b PIK3CA. Particulars: at 1 µM.
Test [2] deals with Phosphatidylinositol 4,5-bisphosphate 3-kinase catalytic subunit alpha isoform (Homo sapiens), P42336 [H1047L]. The description is as §1. Particulars: at 1 µM.
For test [3], the target named is Phosphatidylinositol 4,5-bisphosphate 3-kinase catalytic subunit alpha isoform (Homo sapiens) (UniProt P42336). The test is described as §1. Particulars: at 10 µM.
The subject of test [4] is Phosphatidylinositol 4,5-bisphosphate 3-kinase catalytic subunit alpha isoform (Homo sapiens), P42336 [C420R]. The test is described as §1. Particulars: at 1 µM.
For test [5], the system named is Phosphatidylinositol 4,5-bisphosphate 3-kinase catalytic subunit alpha isoform (Homo sapiens), P42336 [E545A]. The description is as §1. The settings on record: at 1 µM.
Test [6] has as its system Phosphatidylinositol 4,5-bisphosphate 3-kinase catalytic subunit alpha isoform (Homo sapiens), P42336 [E545K]. The test is described as §1. The settings on record: at 1 µM.
In test [7] the test system is Phosphatidylinositol 4,5-bisphosphate 3-kinase catalytic subunit alpha isoform (Homo sapiens), P42336 [I800L]. The test is described as §1. The settings on record: at 1 µM.
The subject of test [8] is Phosphatidylinositol 4,5-bisphosphate 3-kinase catalytic subunit alpha isoform (Homo sapiens), P42336 [E542K]. The description is as §1. The settings on record: at 1 µM.
Test [9] has as its system Phosphatidylinositol 4,5-bisphosphate 3-kinase catalytic subunit alpha isoform (Homo sapiens), P42336 [Q546K]. Described as §1. Particulars: at 1 µM.
Test [10] relates to Phosphatidylinositol 4,5-bisphosphate 3-kinase catalytic subunit alpha isoform (Homo sapiens), P42336 [M1043I]. The test is described as §1. Particulars: at 1 µM.
Test [11] concerns the target T1, NUAK family SNF1-like kinase 1 (Homo sapiens) (UniProt O60285).
T1 sequence (whole entry): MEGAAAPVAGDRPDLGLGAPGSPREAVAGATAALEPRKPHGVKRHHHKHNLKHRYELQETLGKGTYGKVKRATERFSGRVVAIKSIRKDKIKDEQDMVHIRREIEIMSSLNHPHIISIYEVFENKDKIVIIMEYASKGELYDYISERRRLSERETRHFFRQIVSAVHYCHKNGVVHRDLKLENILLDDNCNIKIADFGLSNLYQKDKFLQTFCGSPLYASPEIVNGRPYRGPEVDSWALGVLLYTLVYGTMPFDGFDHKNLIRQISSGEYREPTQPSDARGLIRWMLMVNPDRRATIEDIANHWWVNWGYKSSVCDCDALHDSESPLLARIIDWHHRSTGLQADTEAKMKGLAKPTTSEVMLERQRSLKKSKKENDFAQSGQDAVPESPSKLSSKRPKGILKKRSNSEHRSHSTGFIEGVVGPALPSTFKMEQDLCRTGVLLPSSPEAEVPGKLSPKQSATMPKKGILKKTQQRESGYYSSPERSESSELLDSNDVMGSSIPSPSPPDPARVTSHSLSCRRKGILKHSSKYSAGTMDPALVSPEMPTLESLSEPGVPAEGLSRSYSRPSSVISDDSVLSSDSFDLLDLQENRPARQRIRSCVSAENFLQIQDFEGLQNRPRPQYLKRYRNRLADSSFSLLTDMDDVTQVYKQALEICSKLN
Kind of test: Selectivity interaction (KinomeScan (DiscoverX)) EUB0001619a NUAK1. The settings on record: at 1 µM.

The target of test [12] is T2, Phosphatidylinositol 5-phosphate 4-kinase type-2 alpha (Homo sapiens) (UniProt P48426).
T2 sequence (whole entry): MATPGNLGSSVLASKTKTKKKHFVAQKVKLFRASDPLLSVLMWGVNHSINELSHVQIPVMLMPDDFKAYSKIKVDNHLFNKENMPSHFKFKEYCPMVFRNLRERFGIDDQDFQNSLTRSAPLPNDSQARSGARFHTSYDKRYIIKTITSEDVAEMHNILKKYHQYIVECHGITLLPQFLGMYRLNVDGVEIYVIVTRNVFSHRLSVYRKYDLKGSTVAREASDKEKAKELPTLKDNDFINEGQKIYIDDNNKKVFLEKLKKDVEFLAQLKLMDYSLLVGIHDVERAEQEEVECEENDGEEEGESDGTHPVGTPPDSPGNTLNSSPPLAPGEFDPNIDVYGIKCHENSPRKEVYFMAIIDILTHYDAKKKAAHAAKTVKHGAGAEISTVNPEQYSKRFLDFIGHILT
Nature of the test: Selectivity interaction (Kinase panel (literature)) EUB0001199aCl PIP4K2A. The settings on record: at 1 µM.

Test [13] concerns the target T3, Muscle, skeletal receptor tyrosine-protein kinase (Homo sapiens) (UniProt O15146).
T3 sequence (whole entry): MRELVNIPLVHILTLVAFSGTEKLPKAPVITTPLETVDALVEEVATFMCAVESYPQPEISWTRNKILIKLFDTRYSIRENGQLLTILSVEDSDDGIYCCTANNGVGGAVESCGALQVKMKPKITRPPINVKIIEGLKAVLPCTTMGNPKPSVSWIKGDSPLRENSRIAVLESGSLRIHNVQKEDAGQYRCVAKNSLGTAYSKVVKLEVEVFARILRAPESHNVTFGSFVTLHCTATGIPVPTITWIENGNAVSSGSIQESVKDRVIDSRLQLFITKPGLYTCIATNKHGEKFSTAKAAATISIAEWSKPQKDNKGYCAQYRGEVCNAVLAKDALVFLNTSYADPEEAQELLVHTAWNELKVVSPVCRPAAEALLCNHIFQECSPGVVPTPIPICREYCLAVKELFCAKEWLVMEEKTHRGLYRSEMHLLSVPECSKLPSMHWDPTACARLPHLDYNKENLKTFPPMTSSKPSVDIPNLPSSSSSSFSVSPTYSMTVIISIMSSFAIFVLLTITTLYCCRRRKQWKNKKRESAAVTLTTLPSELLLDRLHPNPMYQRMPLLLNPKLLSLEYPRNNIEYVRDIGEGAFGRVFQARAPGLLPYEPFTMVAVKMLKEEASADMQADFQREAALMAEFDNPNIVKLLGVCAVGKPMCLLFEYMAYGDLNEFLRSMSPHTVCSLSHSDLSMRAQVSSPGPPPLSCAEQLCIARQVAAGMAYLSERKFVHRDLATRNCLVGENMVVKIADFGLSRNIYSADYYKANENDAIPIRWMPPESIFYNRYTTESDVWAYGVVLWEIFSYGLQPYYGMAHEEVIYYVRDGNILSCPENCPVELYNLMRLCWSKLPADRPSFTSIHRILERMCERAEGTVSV
Kind of test: Selectivity interaction (Kinase panel (Invitrogen)) EUB0000639a MUSK. Particulars: at 200 nM.

The target in test [14] is Epidermal growth factor receptor (Homo sapiens, UniProt P00533). Nature of the test: Selectivity interaction (Kinase panel (Invitrogen)) EUB0000639a EGFR. The settings on record: at 200 nM.
The subject of test [15] is Mast/stem cell growth factor receptor Kit (Homo sapiens), P10721 [V559D,V654A]. Particulars: at 10 µM.

Sequence of Phosphatidylinositol 4,5-bisphosphate 3-kinase catalytic subunit alpha isoform (Homo sapiens), P42336 [H1047L] (P42336 whole entry H1047L, canonical isoform): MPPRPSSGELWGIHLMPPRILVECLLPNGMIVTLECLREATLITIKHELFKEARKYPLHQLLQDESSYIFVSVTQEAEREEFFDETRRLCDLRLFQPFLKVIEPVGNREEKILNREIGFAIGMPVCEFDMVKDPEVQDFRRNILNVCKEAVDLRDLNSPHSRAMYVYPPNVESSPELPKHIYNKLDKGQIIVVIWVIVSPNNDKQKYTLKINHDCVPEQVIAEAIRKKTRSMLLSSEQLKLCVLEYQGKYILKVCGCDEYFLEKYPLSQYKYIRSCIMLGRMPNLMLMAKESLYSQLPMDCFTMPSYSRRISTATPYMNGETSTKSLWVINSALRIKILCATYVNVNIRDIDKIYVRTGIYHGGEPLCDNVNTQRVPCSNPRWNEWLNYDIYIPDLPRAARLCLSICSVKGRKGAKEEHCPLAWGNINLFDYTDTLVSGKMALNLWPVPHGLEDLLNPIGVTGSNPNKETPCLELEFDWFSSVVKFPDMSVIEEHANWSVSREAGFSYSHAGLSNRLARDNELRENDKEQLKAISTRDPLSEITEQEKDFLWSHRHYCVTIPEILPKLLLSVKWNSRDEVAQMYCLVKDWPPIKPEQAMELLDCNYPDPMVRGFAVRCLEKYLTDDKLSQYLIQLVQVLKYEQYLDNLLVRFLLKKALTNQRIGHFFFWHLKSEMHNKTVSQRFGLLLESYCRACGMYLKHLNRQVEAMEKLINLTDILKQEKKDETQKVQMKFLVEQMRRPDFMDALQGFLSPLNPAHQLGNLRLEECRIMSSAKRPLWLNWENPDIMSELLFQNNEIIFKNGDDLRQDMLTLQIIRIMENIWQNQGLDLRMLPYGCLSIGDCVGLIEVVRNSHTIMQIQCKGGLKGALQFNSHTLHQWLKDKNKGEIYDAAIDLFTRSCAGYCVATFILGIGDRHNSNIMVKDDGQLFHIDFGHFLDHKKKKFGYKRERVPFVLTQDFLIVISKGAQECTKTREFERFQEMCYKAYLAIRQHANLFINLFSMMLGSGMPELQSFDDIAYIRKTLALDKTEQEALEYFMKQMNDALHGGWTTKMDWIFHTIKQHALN
Sequence of Phosphatidylinositol 4,5-bisphosphate 3-kinase catalytic subunit alpha isoform (Homo sapiens), P42336 [Q546K] (P42336 whole entry Q546K, canonical isoform): as the sequence (P42336 whole entry H1047L, canonical isoform) above, with Q546K, L1047H counted along it
Sequence of Phosphatidylinositol 4,5-bisphosphate 3-kinase catalytic subunit alpha isoform (Homo sapiens), P42336 [I800L] (P42336 whole entry I800L, canonical isoform): as the sequence (P42336 whole entry H1047L, canonical isoform) above, with I800L, L1047H counted along it
Sequence of Phosphatidylinositol 4,5-bisphosphate 3-kinase catalytic subunit alpha isoform (Homo sapiens), P42336 [C420R] (P42336 whole entry C420R, canonical isoform): as the sequence (P42336 whole entry H1047L, canonical isoform) above, with C420R, L1047H counted along it

As to `COc1cc(N(C)c2ccnc3ccc(C(F)(F)F)cc23)cc(OC)c1OC`, the % binding came to 90% in test [1]; 63% in test [2]; 100% in test [3]; 87% in test [4]; 67% in test [5]; 76% in [6]. In addition, the % binding in test [7] was determined as 72%; in [8] it was 90%; in test [9], 81%; in test [10], 87%.
In the case of `N#Cc1cccc(-c2c[nH]c3ncnc(N4CCOCC4)c23)c1`, in test [11], the % of control stood at 71%.
Regarding `CN1Cc2nccc(-c3cn(C)nc3-c3ccc(F)cc3)c2C1=O`, in [12], the % of inhibition is -6%.
For the compound `CC[C@@H]1[C@H](F)C(=O)N[C@@H]1COc1nccc2cc(C(N)=O)c(OC)cc12` [ZIMLOVISERTIB], the % of inhibition in [13] is -2.77%; in test [14], 3.43%.
For `CCN(CC)CCCCNc1ncc2cc(-c3cc(OC)cc(OC)c3)c(NC(=O)NC(C)(C)C)nc2n1`, the % of control in test [15] was determined as 100%.
